Assay results: article PMC9174238, “pH- and concentration-dependent supramolecular assembly of a fungal defensin plectasin variant into helical non-amyloid fibrils” (Nature Communications, 2022)
Where a SMILES comes first, the peptide text is derived from it. Bridges are numbered along the chain shown (N, C = ends).

Assays:
[1] = pKa by 2D 1H-1H TOCSY NMR pH titration; type: physicochemical; details: imidazole ring protons, 50 mM phosphate buffer, 298 K
Text: 2D ^1H–^1H TOCSY NMR spectra were acquired by sampling the FID for 117 and 14.5 milliseconds by acquiring 1024 × 128 complex data points in the direct and indirect dimensions, respectively. For these ^1H–^1H TOCSY NMR experiments, 16 transients were acquired with an inter-scan relaxation delay of 1 second. All NMR spectra were processed with ample zero filling in all spectral dimensions in Bruker Topspin 3.5 pl7 software and integrated into the same software. Data were plotted in proFit 7 (Quantum Soft). Titration curves were fitted to the Henderson-Hasselbalch equation in proFit 7 as δobs=(δA+10^pKa−pH*δHA)/(1+10^pKa−pH), where δobs is the measured chemical shift, δA is the chemical shift of the deprotonated form and δHA is the chemical shift of the protonated form. The pH of the sample was determined after the measurement.

[2] = tested on: female NMRI mice; details: single intravenous bolus 50 mg/kg, observed 4 days, previously performed, ref ICAAC 2006 poster F2-1166; cited from earlier work
Text: page 11: homeostatic conditions.

[3] = cited from earlier work
Text: The structure of plectasin is stabilized by three disulfide bridges (C4-C30; C15-C37; C19-C39), which is typical for this type of defensins and leads to high confor ...

[4] = Thioflavin T fluorescence measurements; type: physicochemical; details: Gly-HCl pH 2.5; dissolved; c=2 mg/mL; excitation 440±10 nm, emission 490±10 nm
Method: Plectasin stock solutions were dialyzed against 10 mM acetate buffer pH 5.5. A final concentration of 2 mg/mL (450 µM) was obtained by dilution with the dialysis buffer and ThT was added to a final concentration of 20 µM. The fluorescence was monitored after each cycle at 490 ± 10 nm with excitation at 440 ± 10 nm with a gain of 1000 using FLOUstar Omega multi-mode microplate reader (BMG Labtech). Omega software was used to control the plate reader and export the data. Insulin was fibrillated at 40 °C with agitation (600 rpm) for 150 s every 5 min[79]. Additionally, the fluorescence of a sample containing insulin fibrils at a protein concentration of 2 mg/mL was compared to freshly dialyzed plectasin in 10 mM acetate buffer pH 3.5 and pH 5.5 and a sample diluted into 10 mM acetate buffer pH 5.5 and 10 mM phosphate buffer pH 6.5, equilibrated for 12 h was compared (end-point measurement).

[5] = biological target: plectasin variant D9S Q14K V36L (PPI42); assay: dynamic light scattering; pH series, phosphate buffer above pH 6, 2 mg/mL (450 µM), 25 °C
[6] = biological target: His18 (position 18, …); assay: NMR; details: 298 K; not stated (50 mM buffer; no added salt mentioned); 50 mM phosphate according to the Fig. 6b caption. Methods: 50 mM phosphate or 50 mM acetate, with the stock dialysed against 10 mM acetate pH 3.5 and diluted into the final buffer.; Folded, disulfide-intact soluble monomer at 250 µM total protein; fibrils forming at higher pH are NMR-invisible
[7] = biological target: His16 (position 16, …); assay: NMR; details: 298 K; not stated (50 mM buffer; no added salt mentioned); 50 mM phosphate according to the Fig. 6b caption. Methods: 50 mM phosphate or 50 mM acetate, with the stock dialysed against 10 mM acetate pH 3.5 and diluted into the final buffer.; Folded, disulfide-intact soluble monomer at 250 µM total protein; fibrils forming at higher pH are NMR-invisible

## CC[C@H](C)[C@@H]1NC(=O)[C@H](CO)NC(=O)[C@H](CCCCN)NC(=O)[C@@H]2CSSC[C@@H](C(=O)N[C@@H](Cc3ccc(O)cc3)C(=O)O)NC(=O)[C@H](CCCCN)NC(=O)[C@@H]3CSSC[C@H](NC(=O)[C@H](CCCCN)NC(=O)[C@H](CCSC)NC(=O)[C@H](CC(=O)O)NC(=O)[C@H](CC(=O)O)NC(=O)[C@H](CCC(=O)O)NC(=O)[C@H](CO)NC(=O)[C@H](Cc4c[nH]c5ccccc45)NC(=O)[C@@H]4CCCN4C(=O)CNC(=O)[C@H](CC(N)=O)NC(=O)[C@@H](NC(=O)CNC(=O)[C@H](Cc4ccccc4)NC(=O)CN)CSSC[C@H](NC(=O)[C@H](Cc4ccc(O)cc4)NC(=O)CNC(=O)CNC(=O)[C@H](CCCCN)NC(=O)[C@H](Cc4ccc(O)cc4)NC(=O)CNC(=O)[C@H](CCCCN)NC1=O)C(=O)N[C@@H](C)C(=O)N[C@@H](CCCCN)C(=O)NCC(=O)NCC(=O)N[C@@H](Cc1ccccc1)C(=O)N[C@@H](CC(C)C)C(=O)N3)C(=O)N[C@@H](Cc1c[nH]cn1)C(=O)N[C@@H](CC(N)=O)C(=O)N[C@@H](Cc1c[nH]cn1)C(=O)N2 [PPI42] (H-GFGCNGPWSEDDMKCHNHCKSIKGYKGGYCAKGGFLCKCY-OH; disulfide 4-30, 15-37, 19-39)
[1]
  pKa for (H16): 4.4
  pKa for (H18): 6.4
[2]
  Maximum Tolerated Dose (MTD): > 50 mg/kg
  No Observed Adverse Effect Level (NOAEL): > 50 mg/kg

## CC[C@H](C)[C@@H]1NC(=O)[C@H](CO)NC(=O)[C@H](CCCCN)NC(=O)[C@@H]2CSSC[C@@H](C(=O)N[C@@H](Cc3ccc(O)cc3)C(=O)O)NC(=O)[C@H](CCCCN)NC(=O)[C@@H]3CSSC[C@H](NC(=O)[C@H](CCC(N)=O)NC(=O)[C@H](CCSC)NC(=O)[C@H](CC(=O)O)NC(=O)[C@H](CC(=O)O)NC(=O)[C@H](CCC(=O)O)NC(=O)[C@H](CC(=O)O)NC(=O)[C@H](Cc4c[nH]c5ccccc45)NC(=O)[C@@H]4CCCN4C(=O)CNC(=O)[C@H](CC(N)=O)NC(=O)[C@@H](NC(=O)CNC(=O)[C@H](Cc4ccccc4)NC(=O)CN)CSSC[C@H](NC(=O)[C@H](Cc4ccc(O)cc4)NC(=O)CNC(=O)CNC(=O)[C@H](CCCCN)NC(=O)[C@H](Cc4ccc(O)cc4)NC(=O)CNC(=O)[C@H](CCCCN)NC1=O)C(=O)N[C@@H](C)C(=O)N[C@@H](CCCCN)C(=O)NCC(=O)NCC(=O)N[C@@H](Cc1ccccc1)C(=O)N[C@@H](C(C)C)C(=O)N3)C(=O)N[C@@H](Cc1c[nH]cn1)C(=O)N[C@@H](CC(N)=O)C(=O)N[C@@H](Cc1c[nH]cn1)C(=O)N2 [plectasin wildtype]
[3]
  in vivo half-life: long in vivo half-life
  serum stability: high serum stability
  toxicity: low toxicity

## Insulin: positive control known to form amyloid fibrils upon shaking at 40 °C
[4]
  Thioflavin T fluorescence (490 nm), end-point: 13428.8

## plectasin variant D9S Q14K V36L (PPI42) (peptide)
[5]
  fraction of medium-sized oligomers and fibrils (% mass): < 2.5 % mass

## GFGCNGPWSEDDMKCHNHCKSIKGYKGGYCAKGGFLCKCY
[6]
  pKa: around 6.4
[7]
  pKa: around 4.4
